According to patent US11684676B2, “Site-specific antibody-drug conjugates by ADP-ribosyl cyclases” (University of Southern California, priority 2020, dated 2023):

Tested on: CD38 C-fusion IgG
Test: Inactivation of CD38 C-fusion IgG by 2′-Cl-araNAD+-N3
Format: biochemical, human
Conditions: CD38 C-fusion IgG 2 nM, NGD+ 100 μM
From the text: The formation of cyclic GDP-ribose was monitored by a Synergy H1 plate reader (Biotek, VT) under the kinetic mode with excitation wavelength set at 300 nm and emission wavelength at 410 nm.

[N-]=[N+]=NCCCNc1ncnc2c1ncn2[C@@H]1O[C@H](COP(=O)(O)OP(=O)([O-])OC[C@H]2O[C@@H]([n+]3cccc(C(N)=O)c3)[C@@H](Cl)[C@@H]2O)[C@@H](O)[C@H]1O [2′-Cl-araNAD^+-N3, 1-((2R,3S,4R,5R)-5-((((((((2R,3S,4R,5R)-5-(6-((3-azidopropyl)amino)-9H-purin-9-yl)-3,4-dihydroxytetrahydrofuran-2-yl)methoxy)(hydroxy)phosphoryl)oxy)oxidophosphoryl)oxy)methyl)-3-chloro-4-hydroxytetrahydrofuran-2-yl)-3-carbamoylpyridin-1-ium]
kinact: 0.0039 ± 0.0007 s⁻¹
